Assay results: paper PMC4678810 (Nucleic Acids Research, 2015)

How the values were obtained:
[1] = target: YlTrm9N19-Trm112 (Yarrowia lipolytica, UniProt Q6C999)
[2] = target: YlTrm9-Trm112 (full-length) (Yarrowia lipolytica, UniProt Q6C999)
[3] = target: YlTrm9N38-Trm112 (Yarrowia lipolytica, UniProt Q6C999)
Chain of YlTrm9N38-Trm112 (Q6C999 38-234): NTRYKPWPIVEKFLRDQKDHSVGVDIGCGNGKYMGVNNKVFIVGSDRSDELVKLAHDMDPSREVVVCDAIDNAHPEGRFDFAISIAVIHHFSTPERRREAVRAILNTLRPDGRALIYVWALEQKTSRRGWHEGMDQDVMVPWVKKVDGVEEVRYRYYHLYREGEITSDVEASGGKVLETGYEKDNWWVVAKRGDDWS
Chain of YlTrm9N38-Trm112 (Q6C4P5 1-130 partner): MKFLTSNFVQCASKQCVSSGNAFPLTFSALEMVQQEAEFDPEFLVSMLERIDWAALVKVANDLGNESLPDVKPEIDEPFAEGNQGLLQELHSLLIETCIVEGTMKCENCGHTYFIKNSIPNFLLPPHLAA

Chain of YlTrm9N19-Trm112 (Q6C999 19-234): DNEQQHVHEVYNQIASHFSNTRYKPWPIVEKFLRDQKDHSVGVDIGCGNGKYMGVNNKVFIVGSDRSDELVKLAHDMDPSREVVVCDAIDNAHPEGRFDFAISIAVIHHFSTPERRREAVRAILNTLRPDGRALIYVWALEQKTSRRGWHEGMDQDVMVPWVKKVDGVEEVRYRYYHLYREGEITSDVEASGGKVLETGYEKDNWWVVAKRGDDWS
Chain of YlTrm9N19-Trm112 (Q6C4P5 1-130 partner): as the sequence (Q6C4P5 1-130 partner) above
Chain of YlTrm9-Trm112 (full-length) (Q6C999 1-234): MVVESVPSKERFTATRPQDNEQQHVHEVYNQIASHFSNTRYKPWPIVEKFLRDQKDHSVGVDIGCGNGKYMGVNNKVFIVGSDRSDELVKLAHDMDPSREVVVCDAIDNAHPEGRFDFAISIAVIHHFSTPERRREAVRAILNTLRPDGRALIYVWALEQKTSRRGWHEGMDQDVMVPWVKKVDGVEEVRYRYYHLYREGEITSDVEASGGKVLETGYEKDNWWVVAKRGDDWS
Chain of YlTrm9-Trm112 (full-length) (Q6C4P5 1-130 partner): as the sequence (Q6C4P5 1-130 partner) above

C[S+](CC[C@H](N)C(=O)O)C[C@H]1O[C@@H](n2cnc3c(N)ncnc32)[C@H](O)[C@@H]1O (stereo partly drawn) [SAM]
affinity for SAM [1]: both truncated forms were strongly affected in their enzymatic activity
affinity for SAM [2]: displayed the same affinity for SAM
affinity for SAM [3]: displayed the same affinity for SAM
